{"source": "patent US20260055118A1", "about": "“VISIBLE LIGHT SENSITIVE PHOTOREMOVABLE PROTECTING GROUPS, PREPARATION PROCESS THEREOF, PHOTOACTIVATABLE CONJUGATES COMPRISING THEM AND USES THEREOF” (HUN-REN TERMÉSZETTUDOMÁNYI KUTATÓKÖZPONT, priority 2022, published 2026)", "assay_type_in_all_cases": "physicochemical", "key": {"[1]": {"assay": "Uncaging experiments, LED irradiation followed by HPLC-UV-MS", "description": "(§1) The uncaging experiments were performed using green (4 W input power, λmax=549 nm half-width: 16 nm, output power: 72 mW), orange (4 W input power, λmax=605 nm half-width: 10 nm, output power: 140 mW) and red (4 W input power, λmax=658 nm half-width: 10 nm, output power: 210 mW) LEDs as light source. Sample solutions were prepared, each containing 1 ml of solvent (90% v/v water-MeCN or 90% PBS-MeCN or 100% methanol for the photochemical quantum yield determination) and 0.1 mM or 0.05 mM concentration of the photoactivatable conjugates. The samples were irradiated for a given time using continuous water cooling for the light source. Then, the samples were transferred to the HPLC-UV-MS system and the chromatograms were recorded. The traces at 195 nm, 254 nm or 369 nm (dependent on the cargo moieties) and at the absorption maxima of the photoremovable protecting groups (530 nm, 570 nm or 640 nm) were compared and the corresponding peaks were integrated and compared to reference calibration sets. The possible photoproducts were identified by their corresponding m/z value and also from the UV/VIS spectra from the DAD-equipped instrument. For the dark stability experiments, the HPLC sample solutions were kept in the dark and chromatograms were recorded multiple times.\nThe photouncaging was evaluated by HPLC-MS using green (4 W input power, λmax=549 nm half-width: 16 nm, output power: 72 mW), orange (4 W input power, λmax=605 nm half-width: 10 nm, output power: 140 mW) and red (4 W input power, λmax=658 nm half-width: 10 nm, for Q=CMe2 output power: 210 mW) LED irradiation. For all compounds the experiments were performed in 90% water/MeCN mixtures as well as in 90% PBS/MeCN (0.1 mM concentration). In all cases, the irradiation led to the release of the model active agents with significant differences based on the photoremovable protecting group, cargo unit and the connecting chemical moiety as well as on the water content of the uncaging medium. Comparing the green light absorbing target conjugates, irradiation of 39 led to the release of 54% phenylacetic acid in 60 s (FIG. 6b), while 180 s (for 50%) was required for the same result in case of 41. Approximately 65% of phenylacetic acid was released after 180 s of irradiation with orange light from model target conjugate 41 (FIG. 6a). The current state of the art BODIPY derivative (for the structure, see the next section),^20,21 released only 12% phenylacetic acid after irradiation for 1800 s. Contrary to the general expectations that increasing the wavelength diminishes photolysis rates, the uncaging of the redshifted Q=CMe2 derivative 43 was also very effective, reaching >70% release of phenylacetic acid in 120 s after red light irradiation (FIG. 6c). The high efficiency of 43 as a red light-activatable photoremovable protecting group was also compared to a π-extended BODIPY derivative (substrate 7 in REF^21, using methanol as the solvent in a concentration of 0.1 mM), the current state of the art in this region of visible light.\nImportantly, except in the case of compounds wherein the connecting chemical moiety was a carbonate moiety (i.e., compound 51, FIG. 6f), the target conjugates were stable in water as well as in PBS for 24 hours in the dark. The stability and uncaging rates of several leaving groups was also assessed. Comparing the most important functional groups (carboxylic acid, amine, phenol, alcohol) in potential active agents connected via the typical linkages in the target conjugates, the carbonate bond was the most labile (compound 51, >70% decomposition in 30 s with red light at 50% power) although the long-term dark stability was poor. None of the other model active agents were released in significant quantities, however, after 24-28 hours in the dark (for dark stability data see FIGS. 6a-6h, right side).\nUsing HPLC-MS, not only the appearance of the released model active agents could be monitored but also the products of photolysis were detectable. […]"}, "[2]": {"assay": "Spectroscopic properties of the target conjugates in PBS", "conditions": "for ε (molar absorption coefficient): at the absorption maximum", "description": "All starting materials were obtained from commercial suppliers and used without further purification. Analytical thin-layer chromatography (TLC) was performed on silica gel 60 F254 precoated aluminum TLC plates from Merck. Flash column chromatography was performed on Teledyne Isco CombiFlash® Rf+ automated flash chromatographer with silica gel (25-40 μm) from Zeochem. NMR spectra were recorded on a Varian Inova 500 MHz spectrometer. Chemical shifts (δ) are given in parts per million (ppm) using solvent signals or TMS as the reference. Coupling constants (J) are reported in Hertz (Hz). Analytical RP-HPLC-UV/Vis-MS measurements were employed using a Shimadzu LCMS-2020 instrument applying a Gemini C18 column (100×2.00 mm I.D.) in which the stationary phase is […] with a pore size of 110 Å. The chromatograms were detected by a UV-Vis diode array (190-800 nm) and an ESI-MS detector. The following linear gradient elution profile was applied, 0 min 0% B; 6.5 min 100% B; 7 min 0% B; 8 min. 0% B) with eluent A (2% HCOOH, 5% MeCN and 93% water) and B (2% HCOOH, 80% MeCN and 18% water) at a flow rate of 1.0 mL min-1 at 30° C. The samples were dissolved in MeCN—water mixtures. Spectroscopic measurements were performed on a Jasco FP 8300 spectrofluorometer. Quartz cuvettes with path length of 1 cm were used.\nThe spectroscopic properties of the target conjugates were determined in PBS. […] Compounds with Q=O have absorption bands in the green-yellow region while Q=CMe2 derivatives absorb in the red (up to 700 nm). All of the compounds have moderate to high absorption coefficients and significant fluorescence. The spectroscopic details can be found in Table 1. In the table, λmax means absorption maximum; λem means fluorescence emission maximum; s means molar absorption coefficient (at the absorption maximum)."}, "[3]": {"assay": "Uncaging quantum yield determination relative to BODIPY reference", "conditions": "for ε × Φu, uncaging cross-section / quantum efficiency: at the wavelength in parentheses beside each value (538-660 nm); for Φu, uncaging quantum yield: calculated from active agent release; for Φu, uncaging quantum yield / Φdeg, degradation quantum yield: green light irradiation; for Φdeg, degradation quantum yield: calculated from the disappearance of the target conjugate", "description": "The relative photochemical quantum yields of the uncaging reactions together with the degradation quantum yields were determined from the results of the quantitative HPLC-UV experiments. In all cases, green light irradiation was used since all target conjugates absorbed in this range as well as the reference BODIPY. The photochemical quantum yields were determined using the following equation:\n[formula] • where • Φu is the photochemical quantum yield of the sample • Φu,ref is the photochemical quantum yield of the reference • k is the obtained reaction rate constant of the photoreaction of the sample • kref is the obtained reaction rate constant of the photoreaction of the reference • c is the concentration of the sample • cref is the concentration of the reference • V is the volume of the sample • Vref is the volume of the reference • a is the absorption correction factor of the sample • aref is the absorption correction factor of the reference\nThe absorption correction factors (a) were determined from the molar absorption coefficients and the green LED emission data obtained by the fluorimeter. […] In other words, the transmittance at each wavelength together with the emission data of the light source can be used to calculate the percentage of absorbed photons according to the following equation:\n[formula] • where • T(λ) is the transmittance at each wavelength (determined from the molar absorption coefficients) • F(λ) is the LED emission at each wavelength • λmin, λmax is the LED emission range.\nThe rate constants of the photoreactions were determined by considering the reactions monoexponential with an initial linear phase (up to 10-20% degradation). First, the concentration vs. HPLC-UV peak were determined for each cargo moieties. […] The rate constants were determined for both the reference (with known Φu) and the sample. For reference, a commonly known BODIPY derivative was used with a similar phenylacetic acid-derived cargo unit (substrate 7 from REF^40), Φu=0.15%:\nThe calculated photochemical quantum yields together with uncaging cross-sections or quantum efficiencies (product of the molar absorption coefficient at a given wavelength, shown in parentheses and the photochemical quantum yield) are shown in Table 2. In the table, Φu is the photochemical quantum yield of the release; Φdeg is the photochemical quantum yield of degradation; ε×Φu is the uncaging cross-section or quantum efficiency of the release at a given wavelength in parentheses."}, "[4]": {"assay": "Dark stability experiments (HPLC)", "conditions": "water and PBS, 24 hours in the dark", "description": "as §1, with “The traces at 195 nm, 254 nm or 369 nm (dependent on the cargo moieties) and at the absorption maxima of the photoremovable protecting groups (530 nm, 570 nm or 640 nm) were compared and the corresponding peaks were integrated and compared to reference calibration sets. The possible photoproducts were identified by their corresponding m/z value and also from the UV/VIS spectra from the DAD-equipped instrument.” left out\nImportantly, except in the case of compounds wherein the connecting chemical moiety was a carbonate moiety (i.e., compound 51, FIG. 6f), the target conjugates were stable in water as well as in PBS for 24 hours in the dark. The stability and uncaging rates of several leaving groups was also assessed. […] None of the other model active agents were released in significant quantities, however, after 24-28 hours in the dark (for dark stability data see FIGS. 6a-6h, right side)."}}}
{"smiles": "CC(OC(=O)Cc1ccccc1)c1c2ccc(=[N+]3CCCC3)cc-2oc2cc(N3CCCC3)ccc12.[I-]", "note": "(stereo not drawn) [Compound 41, 1-(9-(1-(2-phenylacetoxy)ethyl)-6-(pyrrolidin-1-yl)-3H-xanthen-3-ylidene)pyrrolidin-1-ium iodide]", "values": [{"measurement": "irradiation time required for 50% release of phenylacetic acid", "setting": "[1]; green light", "value": 180, "unit": "s"}, {"measurement": "release of phenylacetic acid", "setting": "[1]; orange light, 180 s", "value": "Approximately 65%"}, {"measurement": "λem (fluorescence emission maximum)", "setting": "[2]", "value": 592, "unit": "nm"}, {"measurement": "λmax (absorption maximum)", "setting": "[2]", "value": 570, "unit": "nm"}, {"measurement": "ε (molar absorption coefficient)", "setting": "[2]", "value": "70 000 M^−1cm^−1"}, {"measurement": "ε × Φu, uncaging cross-section / quantum efficiency", "setting": "[3]", "value": 1020, "unit": "M⁻¹ cm⁻¹"}, {"measurement": "Φu, uncaging quantum yield", "setting": "[3]", "value": 1.5, "unit": "%"}, {"measurement": "Φdeg, degradation quantum yield", "setting": "[3]", "value": 1.9, "unit": "%"}]}
{"smiles": "CC(OC(=O)Cc1ccccc1)C1=C2C=CC(=[N+]3CCCC3)C=C2C(C)(C)c2cc(N3CCCC3)ccc21.[I-]", "note": "(stereo not drawn) [Compound 43, 1-(9,9-dimethyl-10-(1-(2-phenylacetoxy)ethyl)-7-(pyrrolidin-1-yl)anthracen-2 (9H)-ylidene)pyrrolidin-1-ium iodide]", "values": [{"measurement": "increase in the photolysis rate versus π-extended BODIPY derivative", "setting": "[1]; methanol, 0.1 mM, red light", "value": "approximately 5 fold"}, {"measurement": "release of phenylacetic acid", "setting": "[1]; red light, 120 s", "value": "> 70", "unit": "%"}, {"measurement": "λem (fluorescence emission maximum)", "setting": "[2]", "value": 674, "unit": "nm"}, {"measurement": "λmax (absorption maximum)", "setting": "[2]", "value": 641, "unit": "nm"}, {"measurement": "ε (molar absorption coefficient)", "setting": "[2]", "value": "86 000 M^−1cm^−1"}, {"measurement": "ε × Φu, uncaging cross-section / quantum efficiency", "setting": "[3]", "value": 1400, "unit": "M⁻¹ cm⁻¹"}, {"measurement": "Φu, uncaging quantum yield", "setting": "[3]", "value": 1.7, "unit": "%"}, {"measurement": "Φdeg, degradation quantum yield", "setting": "[3]", "value": 2.2, "unit": "%"}]}
{"smiles": "CC(OC(=O)Oc1ccccc1)C1=C2C=CC(=[N+]3CCCC3)C=C2C(C)(C)c2cc(N3CCCC3)ccc21.[I-]", "note": "(stereo not drawn) [Compound 51, 1-(9,9-dimethyl-10-(1-((phenoxycarbonyl)oxy)ethyl)-7-(pyrrolidin-1-yl)anthracen-2 (9H)-ylidene)pyrrolidin-1-ium iodide]", "values": [{"measurement": "decomposition", "setting": "[1]; red light at 50% power, 30 s", "value": "> 70", "unit": "%"}, {"measurement": "λem (fluorescence emission maximum)", "setting": "[2]", "value": 676, "unit": "nm"}, {"measurement": "λmax (absorption maximum)", "setting": "[2]", "value": 643, "unit": "nm"}, {"measurement": "ε (molar absorption coefficient)", "setting": "[2]", "value": "73 300 M^−1cm^−1"}, {"measurement": "ε × Φu, uncaging cross-section / quantum efficiency", "setting": "[3]", "value": "13 200 M^−1cm^−1"}, {"measurement": "Φu, uncaging quantum yield", "setting": "[3]", "value": 18, "unit": "%"}, {"measurement": "Φdeg, degradation quantum yield", "setting": "[3]", "value": 25, "unit": "%"}, {"measurement": "dark stability", "setting": "[4]", "value": "reduced and poor"}]}
